The text below walks through data of patent US4252807A, “Fused pyrimidine derivatives and antiatherosclerotic methods of treatment with them” (Chincin Gyogyszer es Vegyeszeti Termekek Gyara Rt., priority 1976, dated 1981).

Data set [1] concerns cholesterin-fed rabbit atherosclerosis model. Briefly: cholesterin-fed rabbit atherosclerosis model (Table 1). The data set is classed as in vivo. Set-up: Serum triglyceride: unit not given here. The following applies: for Serum triglyceride / Serum total cholesterin / Aorta total cholesterin / Aorta total lipid / Serum total lipid: rabbit, cholesterin-fed; for Serum triglyceride: Control-1 75, Control-2 103; for Serum total cholesterin: Control-1 326, Control-2 1504; for Aorta total cholesterin: Control-1 331, Control-2 921; for Aorta total lipid: Control-1 1928, Control-2 2575; for serum lipid, aorta lipid and cholesterin lipid level: in words, from the data of Table 1 (rabbit, 50 mg/kg).

Data set [2] relates to normolyphaemic rats. Briefly: normolyphaemic rats, serum lipids (Table 2). The following applies: for Serum cholesterine: Control 103; for Serum triglyceride: Control 185.1. It counts as in vivo, rat. Set-up: Serum triglyceride: unit not given here.
[3] abbreviates: dose 50 mg/kg, Control-1 (normal feed) 658, Control-2 (cholesterin) 2374.

In data set [1] (dose 50 mg/kg), “6-methyl-9-chloro-phenyl)-methylene-4-oxo-6,7,8,9-tetrahydro-4H-pyrido(1,2a)pyrimidine-3-carboxylic acid ethylester” showed a Serum triglyceride of 190, a Serum total cholesterin of 1531, an Aorta total cholesterin of 365 and an Aorta total lipid of 2461. In addition, the Serum total lipid in data set [1] (setting [3]) is reported as 2547.

In data set [1] (dose 50 mg/kg), `CCOC(=O)c1cnc2n(c1=O)C(C)CCC2=Cc1cccn1C` (centres unmarked) [A, 6-methyl-9-(N-methyl-2-pyrrolyl)-methylene-4-oxo-6,7,8,9-tetrahydro-4H-pyrido(1,2a) pyrimidine-3-carboxylic acid ethylester] gave a Serum triglyceride of 121, a Serum total cholesterin of 1419, an Aorta total cholesterin of 958 and an Aorta total lipid of 2496. In data set [1] (setting [3]), this compound returned a Serum total lipid of 2309.

As for `CCOC(=O)C=C1CCC(C)n2c1ncc(C(=O)OCC)c2=O` (centres unmarked) [C, 6-methyl-9-(ethoxycarbonyl-methylene)-4-oxo-6,7,8,9-tetrahydro-4H-pyrido(1,2a)-purimidine-3-carboxylic acid ethylester], the “serum lipid, aorta lipid and cholesterin lipid level” value in data set [1] is listed as “significant decrease”. In data set [1] (dose 50 mg/kg), this compound returned a Serum triglyceride of 119, a Serum total cholesterin of 1176, an Aorta total cholesterin of 353 and an Aorta total lipid of 1878. The Serum total lipid in data set [1] (setting [3]) came out at 1903.

Regarding `CCOC(=O)C(C)(C)Oc1ccc(Cl)cc1` [Chlofibrate, reference compound], in data set [1] (dose 250 mg/kg), the Serum triglyceride is 115, the Serum total cholesterin is given as 1137, the Aorta total cholesterin is given as 787 and the Aorta total lipid is 2227. Moreover, the Serum total lipid in data set [1] (dose 250 mg/kg, Control-1 658, Control-2 2374) turned out to be 1938. The “weight of the liver” value in data set [1] (test animals) is recorded as “increase the weight of the liver”. In data set [2] (250 mg/kg p.o.), this compound returned a Serum cholesterine of 63.9 and a Serum triglyceride of 144.1.

Regarding `CCOC(=O)c1cnc2n(c1=O)C(C)CCC2CC(=O)O` (centres unmarked) [D, 6-methyl-3-ethoxycarbonyl-4-oxo-6,7,8,9-tetrahydro-4H-pyrido(1,2a)pyrimidine-9-yl-acetic acid], the “serum lipid, aorta lipid and cholesterin lipid level” value in data set [1] is on record as “significant decrease”. In addition, in data set [1] (dose 50 mg/kg), the Serum triglyceride came to 97, the Serum total cholesterin was found to be 972, the Aorta total cholesterin is 186 and the Aorta total lipid was found to be 1355. For the same compound, the Serum total lipid in data set [1] (setting [3]) is listed as 1638.

For the compound `CCOC(=O)C=C1CCCn2c1ncc(C(=O)OCC)c2=O` [E, 9-(ethoxycarbonyl-methylene)-4-oxo-6,7,8,9-tetrahydro-4H-pyrido(1,2a)pyrimidine-3-carboxylic acid ethylester], in data set [2] (50 mg/kg p.o.), the Serum cholesterine is listed as 86.5 and the Serum triglyceride amounted to 127.9.

In data set [2] (50 mg/kg p.o.), `CCOC(=O)C1=CNC2C(CC(=O)O)CCCN2C1=O` (centres unmarked) [F, 9-(carboxyl-methyl)-4-oxo-1,6,7,8,9,9a-hexahydro-4H-pyrido(1,2a)pyrimidine-3-carboxylic acid ethylester] registered a Serum cholesterine of 88.0 and a Serum triglyceride of 155.5.

On to `CCOC(=O)c1cnc2n(c1=O)CCCC2CC(=O)O` (centres unmarked) [G, 9-(carboxyl-methyl)-4-oxo-6,7,8,9-tetrahydro-4H-pyrido-(1,2a)pyrimidine-3-carboxylic acid ethylester], for which, in data set [2] (50 mg/kg p.o.), the Serum cholesterine is 88.0 and the Serum triglyceride was 127.5.

As to `COC(=O)C=C1CCC(C)n2c1ncc(C(=O)OC)c2=O` (centres unmarked) [H, 9-(methoxycarbonyl-methylene)-6-methyl-4-oxo-6,7,8,9-tetrahydro-4H-pyrido(1,2a)pyrimidine-3-carboxylic acid methylester], in data set [2] (50 mg/kg p.o.), the Serum cholesterine came out at 90.2 and the Serum triglyceride stood at 107.9.
